Test results taken from patent publication US6583177B2, “Leukotriene B4 antagonist compounds and method for treatment” (Ono Pharmaceutical Co., Ltd., priority 1994, dated 2003).

Assays:
[1] = molecular target: T1, LTB4 receptor (Homo sapiens, UniProt Q15722); test: Binding inhibition against 3H-LTB4 on the human polymorphonuclear leukocyte (PMN); conditions: percentage of inhibition of specific 3H-LTB4 (4nM) binding to human PMN, 0° C. for 20 min; formula (IB) compounds, Table 18
T1 construct: The reaction was started by addition of a thoroughly mixed PMN cell suspension (1.6×10^6 cells); endogenous in cells; host or cells: human polymorphonuclear leukocytes (PMN), whole-cell suspension
Method: Binding Inhibition Against ^3H-LTB4 on the Human Polymorphonuclear Leukocyte (PMN)
0.049 ml Hanks balanced salt solution (HBSS), 0.001 ml test compound and 0.05 ml ^3H-LTB4 (4nM) were added to polypropylene tubes and mixed. The reaction was started by addition of a thoroughly mixed PMN cell suspension (1.6×10^6 cells), followed by incubation at 0° C. for 20 min. The reaction was terminated by the addition of ice-cold HBSS (2.5 ml). PMNs were harvested by vacuum filtration through Whatman GF/C glass fiber filters on a Brandel cell harvester (BRANDEL, M-24R). The filters were then washed 2 times to remove free ^3H-LTB4 with 2.5 ml of the ice-cold PBS (−) solution. The filters were transferred to each vial, and equilibrated after adding 8 ml ACS II cocktail (Amersham). The radioactivity was measured by liquid scintillation counter (Aloka, LSC-5100).
Specific binding of ^3H-LTB4 to the LTB4 receptor was defined as total binding minus nonspecific binding. Nonspecific binding was the amount of ^3H-LTB4 binding in the presence of 1.5 μM LTB4 instead of the test compound. The inhibitory effect of test compound was calculated from the following equation.
The percentage of inhibition (%)=100−(B1/B0×100)
B1: Specific ^3H-LTB4 binding in presence of test compound
B0: Specific ^3H-LTB4 binding in absence of test compound
The compounds of the formula (IB), of the present invention have an antagonistic activity on LTB4. The results which are measured by method as hereinbefore described in Example 1(A), are shown the following Table 18.

[2] = molecular target: T2, PLA2 (derived from hog pancreas) (Sus scrofa, UniProt P00592); test: Inhibitory activity on PLA2; assay type: biochemical; conditions: hog pancreas PLA2, 10PY-PC substrate, fluorescence, pH7.5
T2 construct: a solution of 10 mU/ml PLA2 (derived from hog pancreas) (50 μl); from tissue; host or cells: hog pancreas
Method: (1) Inhibitory Activity on PLA2
A reaction solution including 50 mM tris-HCl buffer (pH7.5, 874 μl; containing 100 mM sodium chloride, 1 mM EDTA), 1M calciumchloride (6 μl), 1% bovine serum albumin (10 μl) and 2.5 mM 10PY-PC (10 μl), was prepared. To the solution were added a test compound in various concentration or water (50 μl), and a solution of 10 mU/ml PLA2 (derived from hog pancreas) (50 μl). The appearance of fluorescence was measured (Ex=345 nm, Em=396 nm). Percentage (%) of the strength of fluorescence in the presence of a test compound was calculated when the strength of that in the absence thereof was regarded as 100%, and therefrom IC50 value was calculated.
10PY-PC represents 3′-palmitoyl-2-(1-pyrenedecanoyl)-L-α-phosphatidylcholine, […]

[3] = molecular target: T3, trypsin (derived from bovine pancreas) (Bos taurus, UniProt P00760); test: Inhibitory activity on trypsin; assay type: biochemical; conditions: bovine pancreas trypsin, BAPNA substrate, 30° C., pH 8.0; read-out: inhibitory activity on trypsin IC50
T3 construct: a solution of 80 mU/ml trypsin (derived from bovine pancreas) (50 μl); from tissue; host or cells: bovine pancreas
T3 sequence (P00760 24-246): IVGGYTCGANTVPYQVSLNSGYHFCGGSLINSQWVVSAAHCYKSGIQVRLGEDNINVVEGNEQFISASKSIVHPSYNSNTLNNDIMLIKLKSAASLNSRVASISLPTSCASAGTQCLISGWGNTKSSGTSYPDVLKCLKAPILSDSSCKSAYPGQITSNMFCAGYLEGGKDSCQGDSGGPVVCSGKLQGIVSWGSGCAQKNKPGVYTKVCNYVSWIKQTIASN
Method: (2) Inhibitory Activity on Trypsin
To a mixture of a 0.2 M HEPES.sodium hydroxide buffer solution (pH 8.0, 100 μl) and distilled water (640 μl), were added a test compound in various concentration or water (10 μl), and a solution of 80 mU/ml trypsin (derived from bovine pancreas) (50 μl) and then the mixture was preincubated for one minute at 30° C. To the solution thus obtained was added 2.5 mM BAPNA (200 μl) and the mixture was incubated at 30° C. The absorbance at 405 nm was measured. Percentage (%) of the absorbance in the presence of a test compound was calculated when the absorbance in the absence thereof was regarded as 100%, and therefrom IC50 value was calculated.
HEPES represents 4-2-hydroxyethyl)-1-piperazineethanesulfonic acid, and
BAPNA represents α-N-benzoyl-DL-arginine-p-nitroanilide hydrochloride.

T1 sequence (Q15722 whole entry): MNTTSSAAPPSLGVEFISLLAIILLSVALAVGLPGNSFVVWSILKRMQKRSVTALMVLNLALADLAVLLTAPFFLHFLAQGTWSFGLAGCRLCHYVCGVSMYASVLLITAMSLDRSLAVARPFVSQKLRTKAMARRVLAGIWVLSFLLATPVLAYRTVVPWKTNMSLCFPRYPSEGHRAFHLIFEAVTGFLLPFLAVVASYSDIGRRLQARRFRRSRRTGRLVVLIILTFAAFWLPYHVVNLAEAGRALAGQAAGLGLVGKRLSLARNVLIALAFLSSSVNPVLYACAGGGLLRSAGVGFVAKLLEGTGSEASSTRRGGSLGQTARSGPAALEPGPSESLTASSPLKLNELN
T2 sequence (P00592 23-146): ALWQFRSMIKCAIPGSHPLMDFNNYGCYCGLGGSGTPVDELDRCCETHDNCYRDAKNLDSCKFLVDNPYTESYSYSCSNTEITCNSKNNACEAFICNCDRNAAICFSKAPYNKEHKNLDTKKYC

SMILES | inhibition [1] [%] | IC50 [2] [µM] | IC50 [3] [µM]
C=CCC(NC(=O)/C(C)=C/c1ccc(C(=O)Oc2ccc(C(=N)N)cc2)cc1)(C(=O)OCC)C(=O)OCC [Example 2(o)] | 85.8 | 12 | 0.14
C=CCN(CC(=O)OCC)C(=O)C(=Cc1ccc(C(=O)Oc2ccc(C(=N)N)cc2)cc1)C(=O)OCC [Example 2(s)] | 83 | 44 | 0.16

Next, values leading:

inhibition [1] [%] | IC50 [2] [µM] | IC50 [3] [µM] | SMILES
95.2 | 29 | 0.13 | CCOC(=O)CC[C@H](NC(=O)c1ccc(/C(C)=C/C(=O)Oc2ccc(C(=N)N)cc2)cc1)C(=O)OCC [Example 2(p)]
98 | 34 | 0.16 | C=CCN(CC(=O)OCC)C(=O)c1ccc(/C(C)=C/C(=O)Oc2ccc(C(=N)N)cc2)cc1 [Example 2(q)]
80.1 | 46 | 0.16 | CCOC(=O)CC[C@H](NC(=O)C(=Cc1ccc(C(=O)Oc2ccc(C(=N)N)cc2)cc1)C(=O)OCC)C(=O)OCC [Example 2(r)]
